Calls of active or inactive are those of the source. The calls are words filed in the database; no cut-off is given here.

18 compounds from ChEMBL document CHEMBL1158562, “Design, synthesis and structure-activity relationships of novel biarylamine-based Met kinase inhibitors” (Bioorg Med Chem Lett, 2010) can be followed below.

A short description of data set [1]: Antiproliferative activity against human GTL16 cells after 72 hrs by tetrazolium-based colorimetric assay. As to conditions: GTL 16, 72 h.
Data set [2] deals with GTL 16. As to the kind of experiment: Antitumor activity against human GTL16 cells xenografted in anthymic mouse administered po qd for 15 days. Format: functional, organism-based.
The target of data set [3] is MAP kinase-activated protein kinase 2 (Homo sapiens, UniProt P49137). As to the kind of experiment: Inhibition of MK2.
Sequence of MAP kinase-activated protein kinase 2 (P49137 whole entry, the tested form may be a part): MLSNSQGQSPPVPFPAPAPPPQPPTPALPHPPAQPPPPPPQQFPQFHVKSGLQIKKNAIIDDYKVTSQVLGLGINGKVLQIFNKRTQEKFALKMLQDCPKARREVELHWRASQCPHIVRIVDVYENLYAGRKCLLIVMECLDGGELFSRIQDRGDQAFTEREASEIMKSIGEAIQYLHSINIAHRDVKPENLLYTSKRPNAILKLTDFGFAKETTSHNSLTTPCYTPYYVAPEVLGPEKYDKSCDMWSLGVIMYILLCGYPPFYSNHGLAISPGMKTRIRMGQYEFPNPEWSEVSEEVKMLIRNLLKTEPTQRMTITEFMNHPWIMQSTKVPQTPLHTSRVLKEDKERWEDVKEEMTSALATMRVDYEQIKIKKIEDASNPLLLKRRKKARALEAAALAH
Data set [4] concerns the target Hepatocyte growth factor receptor (Homo sapiens, UniProt P08581). Nature of the data set: Inhibition of GST-tagged human recombinant c-met N terminal domain expressed in Hi5 insect cells after 60 mins by liquid scintillation counting.
Data set [5] is described as follows: Inhibition of CDK2E.
Data set [6] addresses High affinity nerve growth factor receptor (Homo sapiens, UniProt P04629). As to the kind of experiment: Inhibition of TrkA.
Data set [7] deals with Protein kinase C alpha type (Homo sapiens, UniProt P17252). As to the kind of experiment: Inhibition of PKCalpha.
The target of a further data set is Insulin receptor (Homo sapiens, UniProt P06213). Nature of the data set: Inhibition of InsR.
Sequence of Insulin receptor (P06213 28-758 limits assumed): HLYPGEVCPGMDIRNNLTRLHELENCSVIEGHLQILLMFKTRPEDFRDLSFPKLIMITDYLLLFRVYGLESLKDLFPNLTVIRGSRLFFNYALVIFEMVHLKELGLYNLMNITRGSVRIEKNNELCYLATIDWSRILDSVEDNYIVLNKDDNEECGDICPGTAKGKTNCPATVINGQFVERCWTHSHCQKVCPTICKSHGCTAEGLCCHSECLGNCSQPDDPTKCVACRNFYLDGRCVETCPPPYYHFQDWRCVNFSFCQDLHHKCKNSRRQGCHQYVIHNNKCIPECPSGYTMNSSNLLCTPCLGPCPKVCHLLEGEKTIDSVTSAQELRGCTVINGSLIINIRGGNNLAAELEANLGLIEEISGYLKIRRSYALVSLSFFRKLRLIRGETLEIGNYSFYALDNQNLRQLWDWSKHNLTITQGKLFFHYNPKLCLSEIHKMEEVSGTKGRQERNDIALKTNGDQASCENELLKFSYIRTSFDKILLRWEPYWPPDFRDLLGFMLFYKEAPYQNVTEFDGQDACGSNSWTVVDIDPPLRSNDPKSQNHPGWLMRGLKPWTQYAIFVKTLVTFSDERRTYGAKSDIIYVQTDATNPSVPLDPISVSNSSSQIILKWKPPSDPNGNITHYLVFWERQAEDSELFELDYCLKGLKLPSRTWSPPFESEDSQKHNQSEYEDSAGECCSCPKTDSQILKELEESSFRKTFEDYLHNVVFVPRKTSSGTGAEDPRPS
Sequence of Insulin receptor (P06213 763-1382 limits assumed): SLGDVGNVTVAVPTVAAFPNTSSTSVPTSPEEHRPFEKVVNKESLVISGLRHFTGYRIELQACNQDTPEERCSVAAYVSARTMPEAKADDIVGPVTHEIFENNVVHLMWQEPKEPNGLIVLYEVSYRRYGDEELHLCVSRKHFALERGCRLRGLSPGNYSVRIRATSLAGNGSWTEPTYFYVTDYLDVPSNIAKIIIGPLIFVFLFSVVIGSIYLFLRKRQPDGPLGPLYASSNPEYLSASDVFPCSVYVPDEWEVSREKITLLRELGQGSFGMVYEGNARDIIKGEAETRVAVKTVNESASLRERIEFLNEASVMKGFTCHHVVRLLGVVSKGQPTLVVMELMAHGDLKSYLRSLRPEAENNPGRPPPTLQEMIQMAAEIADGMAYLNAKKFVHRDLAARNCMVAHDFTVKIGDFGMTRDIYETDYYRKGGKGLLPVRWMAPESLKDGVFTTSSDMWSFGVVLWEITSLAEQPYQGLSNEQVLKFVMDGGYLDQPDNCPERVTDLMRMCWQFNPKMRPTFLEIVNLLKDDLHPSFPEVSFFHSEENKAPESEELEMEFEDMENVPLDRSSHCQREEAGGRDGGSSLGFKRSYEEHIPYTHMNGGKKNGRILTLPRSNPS
The test system of data set [8] is GTL 16. Nature of the data set: Antitumor activity against human GTL16 cells xenografted in anthymic mouse assessed as complete tumor stasis at 25 mg/kg, po qd for 15 days. The format is functional, organism-based. Details: dose 25 mg/kg.
Data set [9] can be described thus: Cmax in mouse at 50 mg/kg, po for 8 hrs. Format: ADME, organism-based. Details: dose 50 mg/kg, route oral. As to conditions: in vivo.
Data set [10] addresses T1, Receptor-type tyrosine-protein kinase FLT3 (Homo sapiens, UniProt P36888).
T1 sequence (P36888 whole entry): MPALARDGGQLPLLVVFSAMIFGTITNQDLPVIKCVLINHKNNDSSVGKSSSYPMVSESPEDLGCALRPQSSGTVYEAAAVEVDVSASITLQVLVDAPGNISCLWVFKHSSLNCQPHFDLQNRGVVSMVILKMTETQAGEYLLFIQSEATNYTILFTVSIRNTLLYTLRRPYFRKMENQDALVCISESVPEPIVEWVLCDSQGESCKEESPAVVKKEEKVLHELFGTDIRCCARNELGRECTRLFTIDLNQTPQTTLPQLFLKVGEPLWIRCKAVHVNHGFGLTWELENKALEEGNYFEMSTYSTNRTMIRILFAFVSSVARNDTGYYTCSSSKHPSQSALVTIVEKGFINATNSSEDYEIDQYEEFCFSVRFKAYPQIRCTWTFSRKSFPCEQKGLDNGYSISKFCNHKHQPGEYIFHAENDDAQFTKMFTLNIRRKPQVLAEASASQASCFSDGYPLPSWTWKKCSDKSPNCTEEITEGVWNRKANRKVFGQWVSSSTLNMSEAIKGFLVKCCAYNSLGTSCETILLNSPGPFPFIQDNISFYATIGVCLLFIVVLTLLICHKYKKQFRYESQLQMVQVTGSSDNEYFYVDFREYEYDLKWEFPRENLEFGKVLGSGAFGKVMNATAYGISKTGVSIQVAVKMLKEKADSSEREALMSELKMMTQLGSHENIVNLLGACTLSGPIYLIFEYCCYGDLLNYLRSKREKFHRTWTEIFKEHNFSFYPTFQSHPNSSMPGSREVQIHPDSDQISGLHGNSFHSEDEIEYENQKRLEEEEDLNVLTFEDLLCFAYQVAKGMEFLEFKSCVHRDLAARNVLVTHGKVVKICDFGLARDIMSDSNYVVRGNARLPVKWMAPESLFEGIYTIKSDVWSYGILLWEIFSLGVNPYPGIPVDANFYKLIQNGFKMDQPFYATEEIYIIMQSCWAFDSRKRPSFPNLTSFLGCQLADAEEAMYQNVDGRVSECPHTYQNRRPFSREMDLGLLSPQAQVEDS
Nature of the data set: Inhibition of FLT3.

In data set [11] the target is Tyrosine-protein kinase Lck (Homo sapiens, UniProt P06239). As to the kind of experiment: Inhibition of LcK.
Sequence of Tyrosine-protein kinase Lck (P06239 whole entry): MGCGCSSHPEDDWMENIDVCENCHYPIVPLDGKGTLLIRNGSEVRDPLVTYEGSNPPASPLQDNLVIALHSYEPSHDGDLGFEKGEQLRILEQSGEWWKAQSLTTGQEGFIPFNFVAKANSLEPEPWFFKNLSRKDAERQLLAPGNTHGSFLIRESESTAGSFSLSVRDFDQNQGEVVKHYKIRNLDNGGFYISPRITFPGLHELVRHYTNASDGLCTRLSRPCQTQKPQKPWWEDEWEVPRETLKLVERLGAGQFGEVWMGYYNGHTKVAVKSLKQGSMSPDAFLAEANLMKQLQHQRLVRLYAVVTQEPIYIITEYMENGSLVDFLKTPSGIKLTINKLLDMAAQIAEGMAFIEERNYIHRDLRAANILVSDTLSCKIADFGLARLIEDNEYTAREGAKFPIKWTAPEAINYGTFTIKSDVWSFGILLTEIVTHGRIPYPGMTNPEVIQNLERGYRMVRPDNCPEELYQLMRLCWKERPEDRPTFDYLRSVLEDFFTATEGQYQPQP
Data set [12] is described as follows: AUC (0 to 8 hrs) in mouse at 50 mg/kg, po. Format: ADME, organism-based. Details: time < 8 hr, dose 50 mg/kg, route oral. The settings on record: plasma.

Sequence of High affinity nerve growth factor receptor (P04629 whole entry): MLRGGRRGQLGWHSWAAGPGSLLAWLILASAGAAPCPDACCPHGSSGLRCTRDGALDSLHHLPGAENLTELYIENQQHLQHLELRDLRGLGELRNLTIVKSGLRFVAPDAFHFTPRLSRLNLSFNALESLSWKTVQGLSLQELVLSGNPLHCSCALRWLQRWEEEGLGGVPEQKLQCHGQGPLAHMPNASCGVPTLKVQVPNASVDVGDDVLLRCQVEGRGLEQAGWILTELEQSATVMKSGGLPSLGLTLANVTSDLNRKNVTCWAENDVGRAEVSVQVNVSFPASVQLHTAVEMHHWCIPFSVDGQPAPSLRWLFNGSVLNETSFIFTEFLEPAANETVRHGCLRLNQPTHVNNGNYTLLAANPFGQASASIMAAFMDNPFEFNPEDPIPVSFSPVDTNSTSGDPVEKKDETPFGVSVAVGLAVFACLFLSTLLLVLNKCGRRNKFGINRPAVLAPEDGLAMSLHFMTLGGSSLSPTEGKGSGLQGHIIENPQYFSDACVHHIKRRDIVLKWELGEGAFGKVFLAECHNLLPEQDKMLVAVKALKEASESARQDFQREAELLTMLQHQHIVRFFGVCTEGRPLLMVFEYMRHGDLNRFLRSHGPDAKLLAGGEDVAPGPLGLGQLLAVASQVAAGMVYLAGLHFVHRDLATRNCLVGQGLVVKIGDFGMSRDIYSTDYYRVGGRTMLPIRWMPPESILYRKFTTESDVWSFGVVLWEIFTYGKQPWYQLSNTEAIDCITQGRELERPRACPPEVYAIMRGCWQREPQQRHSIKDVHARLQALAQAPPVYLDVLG
Sequence of Hepatocyte growth factor receptor (P08581 whole entry, the tested form may be a part): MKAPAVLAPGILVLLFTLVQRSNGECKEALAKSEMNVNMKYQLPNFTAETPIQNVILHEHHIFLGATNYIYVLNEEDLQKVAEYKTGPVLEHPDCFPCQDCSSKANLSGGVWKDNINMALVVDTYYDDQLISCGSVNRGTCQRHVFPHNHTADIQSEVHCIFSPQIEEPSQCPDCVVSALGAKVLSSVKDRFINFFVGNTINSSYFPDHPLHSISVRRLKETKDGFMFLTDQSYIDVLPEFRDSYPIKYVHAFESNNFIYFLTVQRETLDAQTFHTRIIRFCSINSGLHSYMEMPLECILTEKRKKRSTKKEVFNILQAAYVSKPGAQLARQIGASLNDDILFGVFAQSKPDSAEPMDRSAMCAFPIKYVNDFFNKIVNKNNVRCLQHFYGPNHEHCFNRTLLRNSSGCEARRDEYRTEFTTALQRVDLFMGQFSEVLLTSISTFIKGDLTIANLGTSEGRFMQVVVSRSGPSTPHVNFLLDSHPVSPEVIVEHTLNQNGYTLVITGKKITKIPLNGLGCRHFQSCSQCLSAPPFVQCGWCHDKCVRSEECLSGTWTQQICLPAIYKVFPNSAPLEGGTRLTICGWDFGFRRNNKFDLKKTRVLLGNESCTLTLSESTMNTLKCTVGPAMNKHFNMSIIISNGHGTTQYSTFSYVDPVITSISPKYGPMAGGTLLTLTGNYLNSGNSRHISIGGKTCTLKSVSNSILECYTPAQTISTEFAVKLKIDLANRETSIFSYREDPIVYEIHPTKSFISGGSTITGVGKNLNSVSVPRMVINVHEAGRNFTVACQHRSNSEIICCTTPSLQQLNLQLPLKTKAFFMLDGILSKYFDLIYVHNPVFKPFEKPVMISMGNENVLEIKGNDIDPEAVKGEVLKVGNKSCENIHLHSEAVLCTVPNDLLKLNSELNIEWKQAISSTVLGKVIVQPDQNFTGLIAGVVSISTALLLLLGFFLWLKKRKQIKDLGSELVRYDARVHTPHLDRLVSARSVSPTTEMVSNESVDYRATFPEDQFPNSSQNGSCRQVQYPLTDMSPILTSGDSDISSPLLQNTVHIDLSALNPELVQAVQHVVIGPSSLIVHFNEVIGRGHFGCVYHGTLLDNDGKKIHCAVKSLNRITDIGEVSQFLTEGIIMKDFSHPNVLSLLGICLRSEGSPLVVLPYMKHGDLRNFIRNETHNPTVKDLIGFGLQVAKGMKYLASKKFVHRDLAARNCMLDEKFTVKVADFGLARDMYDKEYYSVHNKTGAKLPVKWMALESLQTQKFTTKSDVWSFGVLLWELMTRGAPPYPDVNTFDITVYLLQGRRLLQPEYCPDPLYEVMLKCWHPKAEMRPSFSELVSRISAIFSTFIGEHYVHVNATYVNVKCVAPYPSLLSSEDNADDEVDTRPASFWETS

A word on the IC50: it is the concentration that inhibits the measured activity by half. In turn, `CN(C(=O)c1cccnc1Nc1ccc(Oc2ccnc3[nH]ccc23)c(F)c1)c1ccc(F)cc1` showed a 50% inhibitory concentration (IC50) in data set [1] of 5580 nM.
The same measure, in the same setting: with `Nc1cc(Oc2ccc(Nc3ncccc3C(=O)Nc3ccc(F)cc3F)cc2F)ccn1` the figure was 900 nM; with `Cc1ccc(C(=O)Nc2ccc(F)cc2F)c(Nc2ccc(Oc3ccnc4[nH]ccc34)c(F)c2)n1`, 2400 nM.
What is called Cmax is the maximum level reached in the sampled fluid or tissue. The AUC(0-t) is exposure summed from dosing to a finite time, without extrapolation to infinity. Read a low AUC(0-t) as less exposure. On to `O=C(Nc1ccc(F)cc1F)c1cccnc1Nc1ccc(Oc2ccnc3[nH]ccc23)c(F)c1`, for which the Activity result in the data set on GTL 16 [2] is “Dose-dependent effect”. Further, the IC50 is more than 50000 nM in [3]; 7 nM in [4]; more than 50000 nM in data set [5]; 210 nM in data set [1]; 350 nM in data set [6]; more than 50000 nM in data set [7]. Further, the IC50 was more than 50000 nM against Insulin receptor, 120 nM in data set [10] and more than 50000 nM in data set [11]. In the data set on GTL 16 [8], the outcome was Active. In [9], this compound returned a Cmax of 9.3 µM. The area under the curve AUC(0-t) at 8 h in [12] was 42 µM·h.
The compound `O=C(Nc1ccc(F)cn1)c1cccnc1Nc1ccc(Oc2ccnc3[nH]ccc23)c(F)c1` showed an IC50 in data set [1] of 270 nM.
`O=C(Nc1ccccc1)c1cccnc1Nc1ccc(Oc2ccnc3[nH]ccc23)c(F)c1`: in data set [1], half-maximal inhibition (IC50) was put at 460 nM.
On the same count and under the same terms, with `Nc1cc(Oc2ccc(Nc3ncccc3C(=O)Nc3ccc(Cl)cc3)cc2F)ccn1` the figure was 1160 nM.
On the same count and under the same terms, with `O=C(Nc1ccc(F)cc1F)c1cc(Br)cnc1Nc1ccc(Oc2ccnc3[nH]ccc23)c(F)c1` the figure was 640 nM; with `Nc1cc(Oc2ccc(Nc3ncc(Br)cc3C(=O)Nc3ccc(F)cc3F)cc2F)ccn1`, 590 nM.
In the case of `O=C(Nc1ccccc1CCO)c1cccnc1Nc1ccc(Oc2ccnc3[nH]ccc23)c(F)c1`, in data set [1], inhibition was half-maximal at 400 nM (IC50).
Same read-out and setting: with `Nc1cc(Oc2ccc(Nc3ncncc3C(=O)Nc3ccc(F)cc3F)cc2F)ccn1` the figure was 1930 nM.
Still for that read-out and setting: with `O=C(Nc1ccc(F)cc1F)c1cnccc1Nc1ccc(Oc2ccnc3[nH]ccc23)c(F)c1` the figure was more than 10000 nM; with `O=C(Nc1ccccc1Cl)c1cccnc1Nc1ccc(Oc2ccnc3[nH]ccc23)c(F)c1`, 1200 nM; with `O=C(Nc1ccc(F)cc1F)c1nccnc1Nc1ccc(Oc2ccnc3[nH]ccc23)c(F)c1`, 7150 nM.
In the case of `CSc1ncc(C(=O)Nc2ccc(F)cc2F)c(Nc2ccc(Oc3ccnc(N)c3)c(F)c2)n1`, in data set [1], the midpoint of inhibition, the IC50, lay at 440 nM.
Same read-out and setting: with `Nc1cc(Oc2ccc(Nc3nccnc3C(=O)Nc3ccc(F)cc3F)cc2F)ccn1` the figure was 2730 nM; with `CN(C)c1ncc(C(=O)Nc2ccc(F)cc2F)c(Nc2ccc(Oc3ccnc(N)c3)c(F)c2)n1`, more than 10000 nM.
On the same count and under the same terms, with `Cc1ccccc1NC(=O)c1cccnc1Nc1ccc(Oc2ccnc3[nH]ccc23)c(F)c1` the figure was 420 nM.
